One may read the IC50 as the midpoint of a concentration-inhibition curve.

Molecules are shown by their SMILES.

For nine compounds, IC50 and activation results are on record in patent publication US20100056526A1, “HETEROMONOCYCLIC COMPOUND AND USE THEREOF” (Takeda Pharmaceutical Company Limited, priority 2006, published 2010).

In one test the target is T1, human AT1 receptor (Homo sapiens, UniProt P30556).
T1 construct: expressed in transfected cells; host or cells: CHO-K1
T1 sequence (P30556 1-359): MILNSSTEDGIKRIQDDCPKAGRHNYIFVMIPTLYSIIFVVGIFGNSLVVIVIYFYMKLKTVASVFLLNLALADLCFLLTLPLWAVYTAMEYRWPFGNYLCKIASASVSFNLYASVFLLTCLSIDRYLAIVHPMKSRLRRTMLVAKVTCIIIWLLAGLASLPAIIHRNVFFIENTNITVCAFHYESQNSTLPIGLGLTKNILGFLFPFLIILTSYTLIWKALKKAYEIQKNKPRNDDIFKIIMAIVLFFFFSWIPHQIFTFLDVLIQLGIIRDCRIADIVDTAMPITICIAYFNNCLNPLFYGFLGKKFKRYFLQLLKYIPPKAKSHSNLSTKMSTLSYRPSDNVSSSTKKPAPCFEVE
Description: Binding assay using human AT1 receptor-expressing CHO-K1 cell membrane fraction ([125I]-angiotensin II). Particulars: 22.5 pM [125I]-angiotensin II, 9 μg AT1 membrane, 1 hr room temperature; read-out: AT1 receptor binding inhibitory action (IC50 (nM)). The essentials:
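CHO-K1 membranes stably expressing AT1 (9 μg) incubated with 22.5 pM [125I]-angiotensin II and compound in 50 mM Tris pH 7.4, 10 mM MgCl2, with or without 0.3 mg/mL fatty acid-free BSA, 1 hr at room temperature. Bound radioactivity counted after GF/C filtration; nonspecific binding with 1 μM CV-11974; IC50 calculated.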

The next test deals with T2, PPARγ (Homo sapiens, UniProt P37231).
T2 construct: expressed in transfected cells; host or cells: CHO-K1
T2 sequence (P37231 1-477 isoform P37231-2): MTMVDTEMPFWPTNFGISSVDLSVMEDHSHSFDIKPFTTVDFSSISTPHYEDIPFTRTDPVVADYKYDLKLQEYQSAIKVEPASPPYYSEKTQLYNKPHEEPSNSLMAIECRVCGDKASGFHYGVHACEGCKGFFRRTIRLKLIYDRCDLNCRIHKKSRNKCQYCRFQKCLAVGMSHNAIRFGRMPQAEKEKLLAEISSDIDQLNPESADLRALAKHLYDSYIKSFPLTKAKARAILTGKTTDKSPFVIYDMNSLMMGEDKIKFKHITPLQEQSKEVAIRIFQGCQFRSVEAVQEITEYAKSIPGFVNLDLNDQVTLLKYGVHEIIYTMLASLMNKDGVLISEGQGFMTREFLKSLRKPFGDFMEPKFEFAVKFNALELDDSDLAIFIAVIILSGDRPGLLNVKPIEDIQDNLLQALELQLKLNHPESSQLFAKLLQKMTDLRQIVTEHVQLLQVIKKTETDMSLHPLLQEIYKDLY
T2 sequence (P19793 1-462 partner): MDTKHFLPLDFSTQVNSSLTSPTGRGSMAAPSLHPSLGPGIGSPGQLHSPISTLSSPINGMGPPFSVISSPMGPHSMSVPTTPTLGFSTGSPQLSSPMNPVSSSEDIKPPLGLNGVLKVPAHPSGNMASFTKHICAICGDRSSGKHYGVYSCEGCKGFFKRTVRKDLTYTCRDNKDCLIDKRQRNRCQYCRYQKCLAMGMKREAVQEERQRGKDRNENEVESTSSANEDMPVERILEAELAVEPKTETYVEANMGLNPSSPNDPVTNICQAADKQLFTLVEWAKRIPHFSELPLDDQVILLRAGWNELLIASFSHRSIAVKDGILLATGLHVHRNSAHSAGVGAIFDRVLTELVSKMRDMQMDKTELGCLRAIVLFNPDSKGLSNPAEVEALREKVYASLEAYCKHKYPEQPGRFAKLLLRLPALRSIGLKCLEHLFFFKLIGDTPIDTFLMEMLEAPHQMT
Description: Evaluation of PPARγ activating action (luciferase reporter in PPARγ:RXRα:4ERPP/CHO-K1 cells). The test is classed as cell-based. Particulars: CHO-K1, 24 h; test compound 10^−6 M; luciferase activity relative to control compound X (1 μM) = 100%, non-administration group = 0%; read-out: PPARγ activating action (activation % (10^−6 M)). The essentials: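 CHO-K1 cells stably carrying PPARγ, RXRα and a 4ERPP luciferase reporter were treated with compound for 1 day at 37 °C in F12 medium with 0.1% fatty acid-free BSA. Luciferase activity was read and scaled between no compound (0%) and reference agonist compound X at 1 μM (100%).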

For `CCCc1nc(CC)n(-c2ccc(OC3CCOC(C)C3)cc2)c(=O)c1Cc1ccc(-c2ccccc2-c2noc(=O)[nH]2)cc1` (stereo not drawn) [Example 424, 2-ethyl-3-{4-[(2-methyltetrahydro-2H-pyran-4-yl)oxy]phenyl}-5-{[2′-(5-oxo-4,5-dihydro-1,2,4-oxadiazol-3-yl)biphenyl-4-yl]methyl}-6-propylpyrimidin-4(3H)-one], the half-inhibitory concentration (IC50) on human AT1 receptor worked out at 1.3 nM. The activation at 1 µM at PPARγ came out at 33.5%.
For `CCCc1nc(CC)n(-c2ccc(OC3CCC(O)C3)cc2)c(=O)c1Cc1ccc(-c2ccccc2-c2noc(=O)[nH]2)cc1` (stereo not drawn) [Example 425, 2-ethyl-3-{4-[(3-hydroxycyclopentyl)oxy]phenyl}-5-{[2′-(5-oxo-4,5-dihydro-1,2,4-oxadiazol-3-yl)biphenyl-4-yl]methyl}-6-propylpyrimidin-4(3H)-one] the same measures were 1.2 nM and 37.5%.
Turning to `CCCCc1nc(C)n(-c2ccc(OC(C)(C)COC)cc2)c(=O)c1Cc1ccc(-c2ccccc2-c2noc(=O)[nH]2)cc1` [Example 427, 6-butyl-3-[4-(2-methoxy-1,1-dimethylethoxy)phenyl]-2-methyl-5-{[2′-(5-oxo-4,5-dihydro-1,2,4-oxadiazol-3-yl)biphenyl-4-yl]methyl}pyrimidin-4(3H)-one], the 50% inhibitory concentration (IC50) on human AT1 receptor stood at 1.4 nM. Moreover, the activation at 1 µM at PPARγ was determined as 17.7%.
For `CCCc1nc(C)n(-c2ccc(OC3CCCC(=O)CC3)cc2)c(=O)c1Cc1ccc(-c2ccccc2-c2noc(=O)[nH]2)cc1` (stereo not drawn) [Example 437, 2-methyl-3-{4-[(4-oxocycloheptyl)oxy]phenyl}-5-{[2′-(5-oxo-4,5-dihydro-1,2,4-oxadiazol-3-yl)biphenyl-4-yl]methyl}-6-propylpyrimidin-4(3H)-one], at human AT1 receptor, the IC50 was 1 nM. Besides, the activation at 1 µM on PPARγ turned out to be 18.1%.
The corresponding values for `CCCc1nc(C)n(-c2ccc(OC(C)(C)C(C)O)cc2)c(=O)c1Cc1ccc(-c2ccccc2-c2noc(=O)[nH]2)cc1` (stereo not drawn) [Example 439, 3-[4-(2-hydroxy-1,1-dimethylpropoxy)phenyl]-2-methyl-5-{[2′-(5-oxo-4,5-dihydro-1,2,4-oxadiazol-3-yl)biphenyl-4-yl]methyl}-6-propylpyrimidin-4(3H)-one] are 1.4 nM and 20.1%.
The corresponding values for `CCCc1nc(C)n(-c2ccc(OC(C)(C)C(C)=O)cc2)c(=O)c1Cc1ccc(-c2ccccc2-c2noc(=O)[nH]2)cc1` [Example 440, 3-[4-(1,1-dimethyl-2-oxopropoxy)phenyl]-2-methyl-5-{[2′-(5-oxo-4,5-dihydro-1,2,4-oxadiazol-3-yl)biphenyl-4-yl]methyl}-6-propylpyrimidin-4(3H)-one] are 1.6 nM and 29.9%.
For `CCCc1nc(CC)n(-c2ccc(OC(C)(C)C(C)O)cc2)c(=O)c1Cc1ccc(-c2ccccc2-c2noc(=O)[nH]2)cc1` (stereo not drawn) [Example 444, 2-ethyl-3-[4-(2-hydroxy-1,1-dimethylpropoxy)phenyl]-5-{[2′-(5-oxo-4,5-dihydro-1,2,4-oxadiazol-3-yl)biphenyl-4-yl]methyl}-6-propylpyrimidin-4(3H)-one] the same measures were 1.3 nM and 55.4%.
Take `CCCc1nc(CC)n(-c2ccc(OC(C)(C)C(C)=O)cc2)c(=O)c1Cc1ccc(-c2ccccc2-c2noc(=O)[nH]2)cc1` [Example 445, 3-[4-(1,1-dimethyl-2-oxopropoxy)phenyl]-2-ethyl-5-{[2′-(5-oxo-4,5-dihydro-1,2,4-oxadiazol-3-yl)biphenyl-4-yl]methyl}-6-propylpyrimidin-4 (3H)-one]: the half-maximal inhibitory concentration (IC50) at human AT1 receptor is 1.2 nM. Moreover, the activation at 1 µM at PPARγ stood at 62.9%.
In the case of `CCCc1nc(C)c(-c2ccc(OC(C)C)cc2)c(=O)n1Cc1ccc(-c2ccccc2-c2noc(O)n2)cc1F` [Example 450, 3-{[3-fluoro-2′-(5-oxo-4,5-dihydro-1,2,4-oxadiazol-3-yl)biphenyl-4-yl]methyl}-5-(4-isopropoxyphenyl)-6-methyl-2-propylpyrimidin-4(3H)-one], the IC50 on human AT1 receptor worked out at 1.8 nM. For the same compound, the activation at 1 µM on PPARγ is 23.7%.
